Reference: paper PMC11855827, “High-Throughput Screening of Five Compound Libraries for Anthelmintic Activity and Toxicity Leads to the Discovery of Two Flavonoid Compounds” (International Journal of Molecular Sciences, 2025)
Where two headings read alike, the source gives them in different places. *1 amine or outer side, *2 acyl side, *3 side chain or, on linkers, in order; H or OH if unused. Where a SMILES comes first, the peptide text is derived from it. Bridges are numbered along the chain shown (N, C = ends). [ ]: non-standard residue; d: D form. The star is where a group is joined. pTerphenylCO(4''-OnC5H11) = CCCCCOc1ccc(-c2ccc(-c3ccc(C(=O)*)cc3)cc2)cc1; Orn(4R-OH,5R-OH) = O=C([C@H](C[C@@H](O)[C@@H](O)N[*:3])N[*:1])[*:2]; hTyr(3S-OH,4S-OH) = N[C@H](C(=O)O)[C@H](O)[C@@H](O)c1ccc(O)cc1; Pro(3S-OH,4S-Me) = C[C@H]1CN[C@H](C(=O)O)[C@H]1O; Hyp = O=C(O)[C@@H]1C[C@@H](O)CN1

System: C. elegans
Test: microbe, parasite or virus in culture
Details: Caenorhabditis elegans
[1] = 0 h, read-out: Percentage of motility inhibition 0 h, Table S2, C. elegans SS assay, 110 μM, 0 h, averages of 4 data points
[2] = 24 h, read-out: Percentage of motility inhibition 24 h, Table S2, C. elegans SS assay, 110 μM, 24 h, averages of 4 data points
[3] = 0 h, read-out: Percentage of motility inhibition 0 h
[4] = 24 h, read-out: Percentage of motility inhibition 24 h

Row | Compound | inhibition at 110 µM [1] [%] | inhibition at 110 µM [2] [%] | inhibition at 110 µM [3] [%] | inhibition at 110 µM [4] [%]
1 | C[C@@H]1[C@H](O)[C@@H](C)/C=C/C=C/C=C/C=C/C=C/C=C/C=C/[C@H](O[C@@H]2O[C@H](C)[C@@H](O)[C@H](N)[C@@H]2O)C[C@@H]2O[C@](O)(C[C@@H](O)C[C@@H](O)[C@H](O)CC[C@@H](O)C[C@@H](O)CC(=O)O[C@H]1C)C[C@H](O)[C@H]2C(=O)O [Amphotericin B] | 2 | 29 |  | 
2 | C[C@@H]1O[C@@H](O[C@H]2[C@H](O[C@H]3CC[C@]4(C)[C@H]5CC=C6[C@@H]7CC(C)(C)CC[C@]7(C(=O)O[C@@H]7O[C@H](CO[C@@H]8O[C@H](CO)[C@@H](O[C@@H]9O[C@@H](C)[C@H](O)[C@@H](O)[C@H]9O)[C@H](O)[C@H]8O)[C@@H](O)[C@H](O)[C@H]7O)CC[C@@]6(C)[C@]5(C)CC[C@H]4C3(C)C)OC[C@H](O)[C@@H]2O)[C@H](O)[C@H](O)[C@H]1O [Hederasaponin B] | 11 | 3 |  | 
3 | Nc1[nH]c(=O)ncc1F [Flucytosine] | 23 | 32 |  | 
4 | O=C(N/N=C/c1ccc([N+](=O)[O-])o1)c1cc([N+](=O)[O-])cc([N+](=O)[O-])c1O [Nifursol] | 8 | 6 |  | 
5 | CCCCC(CC)CN1CN(CC(CC)CCCC)CC(C)(N)C1 (centres unmarked) [Hexetidine] | 46 | 39 |  | 
6 | C=C1CCC2(C(C)C)CC12 (centres unmarked) [Sabinene] | 0 | 20 |  | 
7 | CCCCN(CCCC)CC(O)c1cc(Cl)cc2c1-c1ccc(Cl)cc1/C2=C/c1ccc(Cl)cc1 (centres unmarked) [Lumefantrine] | 0 | 0 |  | 
8 | COc1ccc2[nH]cc(CCNC(C)=O)c2c1 [Melatonin] | 66 | 24 |  | 
9 | OCc1ccc(O[C@@H]2O[C@H](CO)[C@@H](O)[C@H](O)[C@H]2O)cc1 [Gastrodin] |  |  | 4 | 8
10 | O=C(O)/C=C/c1ccc(O)c(O)c1 [Caffeic acid] | 20 | 13 |  | 
11 | CC(C)(O/N=C(\C(=O)N[C@@H]1C(=O)N2C(C(=O)[O-])=C(C[n+]3ccccc3)CS[C@H]12)c1csc(N)n1)C(=O)O [Ceftazidime] | 37 | 28 |  | 
12 | COc1cc(-c2coc3cc4c(c(OC)c3c2=O)OCO4)cc(OC)c1OC [Irisflorentin] | 26 | 34 |  | 
13 | COc1ccc(-c2coc3cc(O)c(OC)c(O)c3c2=O)cc1 [Irisolidone] | 0 | 0 |  | 
14 | N[C@@H]1CON=C1O [D‐Cycloserine] | 12 | 13 |  | 
15 | C=CCc1ccc(O)c(-c2cc(CC=C)ccc2O)c1 [Magnolol] | 0 | 14 |  | 
16 | O=C(/C=C/c1ccc(O[C@@H]2O[C@H](CO)[C@@H](O)[C@H](O)[C@H]2O)cc1)c1ccc(O)cc1O [Isoliquiritin] | 24 | 2 |  | 
17 | Clc1ccccc1C(c1ccccc1)(c1ccccc1)n1ccnc1 [Clotrimazole] | 6 | 0 |  | 
18 | C[C@H](CCC(=O)O)[C@H]1CC[C@H]2[C@@H]3C[C@H](O)[C@@H]4C[C@H](O)CC[C@]4(C)[C@H]3CC[C@]12C [Hyodeoxycholic acid] | 2 | 18 |  | 
19 | Oc1ccc(Cl)c2cccnc12 [Cloxiquine] | 40 | 19 |  | 
20 | O=C(O)c1ccccc1C(=O)Nc1ccc(S(=O)(=O)Nc2nccs2)cc1 [Phthalylsulfathiazole] | 12 | 0 |  | 
21 | CC(=O)O[C@H]1C[C@H](O[C@H]2[C@@H](O)C[C@H](O[C@H]3[C@@H](O)C[C@H](O[C@H]4CC[C@@]5(C)[C@H](CC[C@@H]6[C@@H]5C[C@@H](O)[C@]5(C)[C@@H](C7=CC(=O)OC7)CC[C@]65O)C4)O[C@@H]3C)O[C@@H]2C)O[C@H](C)[C@H]1O[C@@H]1O[C@H](CO)[C@@H](O)[C@H](O)[C@H]1O [Lanatoside C] | 0 | 2 |  | 
22 | CCCCCOc1ccc(-c2ccc(-c3ccc(C(=O)N[C@H]4C[C@@H](O)[C@@H](O)NC(=O)[C@@H]5[C@@H](O)[C@@H](C)CN5C(=O)[C@H]([C@@H](C)O)NC(=O)[C@H]([C@H](O)[C@@H](O)c5ccc(O)cc5)NC(=O)[C@@H]5C[C@@H](O)CN5C(=O)[C@H]([C@@H](C)O)NC4=O)cc3)cc2)cc1 [Anidulafungin] ({pTerphenylCO(4''-OnC5H11)}-[Orn(4R-OH,5R-OH)]T[Hyp][hTyr(3S-OH,4S-OH)]T[Pro(3S-OH,4S-Me)]; lactam 1-C) | 54 | 61 |  | 
23 | O=C1Nc2ccccc2C1=O [Isatin] | 25 | 3 |  | 
24 | Cc1ccc2c(Cl)cc(Cl)c(O)c2n1 [Chlorquinaldol] | 19 | 38 |  | 
25 | O=C(O)c1cn(C2CC2)c2cc(N3CCC(O)(COc4ccc(N5C[C@H](CO)OC5=O)cc4F)CC3)c(F)cc2c1=O [Cadazolid] | 5 | 31 |  | 
26 | CN(C)CCc1ccc(O)cc1 [Hordenine] | 28 | 10 |  | 
27 | O=c1ncnc2n([C@H]3O[C@@H](CO)[C@H](O)[C@@H]3O)[nH]cc1-2 (stereo in doubt) [Allopurinol riboside] | 0 | 0 |  | 

Row | Compound | inhibition at 110 µM [1] [%] | inhibition at 110 µM [2] [%] | inhibition at 110 µM [3] [%] | inhibition at 110 µM [4] [%]
28 | C=C[C@H]1CN2CC[C@H]1C[C@H]2[C@H](O)c1ccnc2ccccc12 [Cinchonidine] | 0 | 0 |  | 
29 | CC(C)CN(C[C@@H](O)[C@H](Cc1ccccc1)NC(=O)O[C@H]1CO[C@H]2OCC[C@H]21)S(=O)(=O)c1ccc(N)cc1 [Darunavir] |  |  | 39 | 26
30 | CC1=CC(=O)c2ccccc2C1=O [Menadione] | 0 | 0 |  | 
31 | COc1ccc(-c2oc3c(CC=C(C)C)c(O[C@@H]4O[C@H](CO)[C@@H](O)[C@H](O)[C@H]4O)cc(O)c3c(=O)c2O[C@@H]2O[C@@H](C)[C@H](O)[C@@H](O)[C@H]2O)cc1 [Icariin] |  |  | 30 | 12
32 | C=C1[C@@H](O)[C@]2(O)OC[C@]34[C@H]2[C@@]2(C)[C@H](O)C(=O)C=C(C)[C@@H]2C[C@H]3OC(=O)[C@H](O)[C@@]14O [Eurycomanone] | 0 | 4 |  | 
33 | COc1ccc(-c2cc(=O)c3c(O)cc(O)cc3o2)cc1O [Diosmetin] |  |  | 13 | 0
34 | CC(=O)Oc1cccc2c1C(=O)c1c(OC(C)=O)cc(C(=O)O)cc1C2=O [Diacerein] | 0 | 8 |  | 
35 | O=C1N[C@@H]2[C@@H](O)[C@@H](O)[C@H](O)[C@@H](CO)N2C1=O [Kifunensine] | 30 | 5 |  | 
36 | COC(=O)c1ccccc1O [Methyl Salicylate] | 21 | 12 |  | 
37 | COc1c(O)cc2oc(-c3ccccc3)cc(=O)c2c1O [Oroxylin A] | 39 | 12 |  | 
38 | c1ccc(-c2ccc(C(c3ccccc3)n3ccnc3)cc2)cc1 (centres unmarked) [Bifonazole] | 25 | 31 |  | 
39 | O=C(O)c1cc(=O)c2ccccc2[nH]1 [Transtorine] |  | 0 |  | 
40 | O=C1CCC[C@@H]2[C@H]3CCCN4CCC[C@@H](CN12)[C@@H]34 [Matrine] |  | 2 |  | 
41 | C[C@@H]1CC[C@@]2(NC1)O[C@H]1C[C@H]3[C@@H]4CC=C5C[C@@H](O[C@@H]6O[C@H](CO)[C@@H](O[C@@H]7O[C@@H](C)[C@H](O)[C@@H](O)[C@H]7O)[C@H](O)[C@H]6O[C@@H]6O[C@@H](C)[C@H](O)[C@@H](O)[C@H]6O)CC[C@]5(C)[C@H]4CC[C@]3(C)[C@H]1[C@@H]2C [Solamargine] | 0 | 0 |  | 
42 | CC12CC3OC4O[C@H](CO)[C@@H](O)[C@H](O)[C@H]4OC34CC1C4(COC(=O)c1ccccc1)C(=O)O2 (some centres unmarked) [Lactiflorin] | 0 | 11 |  | 
43 | Cc1ccnc2c1NC(=O)c1cccnc1N2C1CC1 [Nevirapine] | 10 | 6 |  | 
44 | Cc1ncc(C[n+]2csc(CCO)c2C)c(N)n1 [Thiamine monochloride] | 13 | 6 |  | 
45 | CC[C@@H]1[C@H]2CCCCN3[C@H]2[C@@H](C[C@H]3[C@@H]2C[C@H](C)C(=O)O2)[C@H]2[C@@H]1OC(=O)[C@H]2C [Neotuberostemonine] | 0 | 9 |  | 
46 | O=C(Nc1ccc(Oc2ccc(Cl)cc2)c(Cl)c1)c1cc(I)cc(I)c1O [Rafoxanide] | 8 | 1 |  | 
47 | COc1ccc(NS(=O)(=O)c2ccc(N)cc2)nn1 [Sulfamethoxypyridazine] | 2 | 8 |  | 
48 | O=P(O)(O)OC(Cn1cncn1)(Cn1cncn1)c1ccc(F)cc1F [Fosfluconazole] | 17 | 0 |  | 
49 | O=C1C(O)=C([C@H]2CC[C@H](c3ccc(Cl)cc3)CC2)C(=O)c2ccccc21 [Atovaquone] | 18 | 2 |  | 
50 | CCN1CCN(C(=O)N[C@@H](C(=O)N[C@@H]2C(=O)N3C(C(=O)O)=C(CSc4nnnn4C)CS[C@H]23)c2ccc(O)cc2)C(=O)C1=O [Cefoperazone] | 22 | 7 |  | 
51 | O=C[C@H](O)[C@@H](O)[C@H](O)CO [Xylose] | 17 | 11 |  | 
52 | CC(=O)C1=C(O)[C@@H]2[C@H]3c4c[nH]c5cccc(c45)C[C@H]3C(C)(C)N2C1=O [Cyclopiazonic acid] | 6 | 2 |  | 
53 | Cc1ncc([N+](=O)[O-])n1CC(C)O (centres unmarked) [Secnidazole] |  |  | 26 | 3
